This note sets out measurements from patent US8632825B2, “Anti-tumoural effects of cannabinoid combinations” (GW Pharma Limited, priority 2008, dated 2014).

Where a SMILES comes first, the peptide text is derived from it. The star is where a group is joined. Cbz = O=C(OCc1ccccc1)*; CH2F = FC*

The subject of experiment [1] is Human U87 MG astrocytoma cells xenografted to nude mice. The experiment in a line: Tumour volume of U87 MG xenografts in nude mice. It counts as in vivo. As to conditions: following 15 days of treatment, 15 mg/kg per day peritumourally. As to the method:
Human U87 MG astrocytoma cells were xenografted to nude mice and the test compounds were injected peritumourally at a concentration of 15 mg/kg per day.

Experiment [2] deals with human U87 MG astrocytoma cells. The experiment can be described thus: Cell viability of human U87 MG astrocytoma cells in culture. It counts as cell-based. As to conditions: U-87 MG, pure cannabinoids. As to the method:
Tetrahydrocannabinol (THC) and cannabidiol (CBD) in the form of cannabis plant extracts were dissolved in ethanol to a concentration of 100 mM this was stored at −20° C. until required.
Before use the cannabis plant extracts were further diluted to the desired concentration, ensuring that the concentration of ethanol was below 0.001%.
U87 human glioma cells were used throughout this experiment. The cells were maintained at 37° C. in a humidified atmosphere with 5% CO2 and 95% air.
Cells were cultured in a 75 cm^2 culture flask in Dulbecco's Modified Eagle Medium (DMEM), which had been supplemented with 4 mM L-glutamine, 100 units/ml penicillin, […], 1% sodium pyruvate, 1% non-essential amino acids and 10% heat-inactivated fetal bovine serum.
The viability of the human U87 MG astrocytoma cells were examined at various cannabinoid concentrations. The THC and CBD extracts were compared against pure THC and CBD.
The methods used were as described in Example 1 above.

The test system of the next experiment is U87MG cells. The experiment in a line: Induced cell death with ATG1 silencing or pan-caspase inhibition. The conditions noted are these: pan-caspase inhibitor; FIG. 3c.

`CCCCCc1cc(O)c2c(c1)OC(C)(C)[C@@H]1CCC(C)=C[C@@H]21` [THC, tetrahydrocannabinol]: in experiment [1], the “Tumour volume relative to zero time” value turned out to be 5.1 ± 0.4. The compound also came in with a 50% inhibitory concentration (IC50) in experiment [2] of 0.37 µM. For `C=C(C)[C@@H]1CCC(C)=C[C@H]1c1c(O)cc(CCCCC)cc1O` [CBD, cannabidiol], the IC50 in experiment [2] was determined as 0.47 µM. Consider `CC(NC(=O)C(NC(=O)OCc1ccccc1)C(C)C)C(=O)NC(CC(=O)O)C(=O)CF` (stereo not drawn) [Z-VAD] (Cbz-Val-Ala-Asp-CH2F; configuration not given here), for which the induced cell death entry in the experiment with U87MG cells is on record as “prevent induced cell death”.

One may read the IC50 as the point on the concentration scale where inhibition reaches its midpoint. A higher IC50 goes with weaker potency in that assay.
